{"source": "patent US11975003B2", "about": "“Methods and compositions for treatment of Zika virus infection” (priority 2016, dated 2024)", "key": {"[1]": {"system": "Zika virus (Malaysia, strain P 6-740)", "experiment": "Murine Zika virus model, treatment begun 1, 3, 5 or 7 dpi (Example 5)", "type": "in vivo, AG129 mice", "details": "for number of mice showing no disease signs: n=8; for weight change in grams between days 7 and 13 post-infection vs placebo: FIG. 10B", "procedure": "Compound A was administered IM at 300 mg/kg/day in a volume of 0.05 ml saline.\nDisease signs were assessed daily for each mouse and the date the disease sign was first noted was recorded. The graph represents the number of mice observed with each disease sign. […] As the time of administration of Compound A post-infection increased, the number of mice displaying no disease signs decreased (2 mice at 3 dpi, 1 mouse at 5 dpi and 0 mice at 7 dpi) and the total number of disease signs increased (13 disease signs at 3 dpi, 16 disease signs at 5 dpi and 23 disease signs at 7 dpi)."}, "[2]": {"experiment": "Phase 1 study of intramuscular injection in healthy human subjects (Example 8)", "type": "in vivo", "details": "human, in vivo", "procedure": "A phase 1 double-blind, placebo-controlled, dose-ranging study was conducted to evaluate the safety, tolerability, and pharmacokinetics of Compound A administered by intramuscular injection (IM) in healthy human subjects. The study was conducted in two parts. In part 1, subjects received a single dose of Compound A at doses from 0.3 mg/kg to 10 mg/kg via IM administration. Additionally, the effect of lidocaine administration (co-administered with Compound A at a dose of 4 mg/kg) on alleviation of pain associated with injection was also evaluated. In part 2, subjects received Compound A for 7 days (q.d.) at doses of 2.5 mg/kg/day, 5 mg/kg/day or 10 mg/kg/day via IM administration. 50 subjects received single doses of Compound A in part 1 (12 subjects received placebo) and 23 subjects received multiple doses of Compound A in part 2 (6 subjects received placebo). All planned cohorts were completed.\nEligible subjects were adults of either sex ages 18 to 50. […]\nThe plasma concentration time profile of Compound A was determined for each subject in part 2 (results expressed as ng/ml Compound A). Blood samples were taken on Day 1 prior to administration of the first dose and at 1, 2, 3, 4, 6, 8, 10, 12, 16 and 24 hours after administration of the first dose of Compound A and on Day 7 prior to administration of the last dose of Compound A and at 1, 2, 3, 4, 6, 8, 10, 12, 16, 24, 36, 48, 72 and 96 hours after administration of the last dose of Compound A. Plasma samples were obtained from the blood samples and the concentration of Compound A determined."}, "Zika virus Uganda MR 766 [3]": {"system": "Zika virus Uganda MR 766", "experiment": "CPE reduction assay (neutral red uptake)", "type": "cell-based", "procedure": "(§1) The compounds were administered at a range of concentrations up to 100 μg/ml. Compounds were prepared in MEM just prior to testing. Inhibition of virus replication was determined by microscopic examination of the infected cells for cytopathic effect, increase of neutral red (NR) dye uptake (colorimetric determination), and virus yield reduction. Uninfected cells treated with a compound were assayed as above for cytotoxicity control. The EC50, EC90 and SI (selectivity index) values were determined in Vero76, Huh7 and RD cells as analyzed by the neutral red uptake dye assay and virus yield reduction assays. The results are presented from 3 or more independent experiments (standard deviations not shown. Three Zika virus strains were used in this in vitro study, Malaysia strain P 6-740, Uganda strain MR-766 and Puerto Rico strain PRVABC-59. Cells were maintained under standard conditions."}, "[4]": {"system": "Zika virus Puerto Rico PRVABC59", "experiment": "CPE reduction assay (neutral red uptake)", "type": "cell-based", "details": "Puerto Rico PRVABC59", "procedure": "as §1"}, "[5]": {"system": "Zika virus Malaysia P 6-740", "experiment": "CPE reduction assay (neutral red uptake)", "type": "cell-based", "procedure": "as §1"}, "Zika virus Uganda MR 766 [6]": {"system": "Zika virus Uganda MR 766", "experiment": "Virus yield reduction (VYR) assay", "type": "cell-based", "procedure": "as §1"}, "[7]": {"system": "Zika virus Puerto Rico PRVABC59", "experiment": "Virus yield reduction (VYR) assay", "type": "cell-based", "details": "Puerto Rico PRVABC59", "procedure": "as §1"}, "[8]": {"system": "Zika virus Malaysia P 6-740", "experiment": "Virus yield reduction (VYR) assay", "type": "cell-based", "procedure": "as §1"}}}
{"smiles": "Cl.Nc1ncnc2c([C@@H]3N[C@H](CO)[C@@H](O)[C@H]3O)c[nH]c12", "note": "[Compound A]", "values": [{"measurement": "time of first administration at which treatment is effective", "setting": "[1]; 300 mg/kg/day IM", "value": "up to 5 days post-infection"}, {"measurement": "survival vs placebo", "setting": "[1]; 300 mg/kg/day IM bid x 8 days, begun 1 dpi, p≤0.001", "value": "statistically significant improvements in survival"}, {"measurement": "viral RNA levels in serum on day 5 post-infection", "setting": "[1]; 300 mg/kg/day IM, begun 1, 3, 5 or 7 dpi, FIG. 10C", "value": "not significantly decreased"}, {"measurement": "total number of disease signs", "setting": "[1]; 300 mg/kg/day IM, begun 1 dpi", "value": 6, "unit": "disease signs"}, {"measurement": "number of mice showing no disease signs", "setting": "[1]; 300 mg/kg/day IM, begun 1 dpi", "value": 6, "unit": "mice"}, {"measurement": "weight change in grams between days 7 and 13 post-infection vs placebo", "setting": "[1]; 300 mg/kg/day IM, begun 1 dpi, p≤0.001", "value": "statistically significant decrease in weight loss"}, {"measurement": "percent weight change", "setting": "[1]; 300 mg/kg/day IM, begun 1 dpi, through 27 dpi, FIG. 10A", "value": "essentially no weight change"}, {"measurement": "mortality curve and survival vs placebo", "setting": "[1]; 300 mg/kg/day IM, begun 3 dpi", "value": "delayed the mortality curve of infected mice and increased survival"}, {"measurement": "total number of disease signs", "setting": "[1]; 300 mg/kg/day IM, begun 3 dpi", "value": 13, "unit": "disease signs"}, {"measurement": "percentage weight loss", "setting": "[1]; 300 mg/kg/day IM, begun 3 dpi, FIG. 10A", "value": "statistically significant decreases in percentage weight loss"}, {"measurement": "number of mice showing no disease signs", "setting": "[1]; 300 mg/kg/day IM, begun 3 dpi", "value": 2, "unit": "mice"}, {"measurement": "weight change in grams between days 7 and 13 post-infection vs placebo", "setting": "[1]; 300 mg/kg/day IM, begun 3 dpi, p≤0.001", "value": "statistically significant decrease in weight loss"}, {"measurement": "mortality curve and survival vs placebo", "setting": "[1]; 300 mg/kg/day IM, begun 5 dpi", "value": "delayed the mortality curve of infected mice and increased survival"}, {"measurement": "total number of disease signs", "setting": "[1]; 300 mg/kg/day IM, begun 5 dpi", "value": 16, "unit": "disease signs"}, {"measurement": "percentage weight loss", "setting": "[1]; 300 mg/kg/day IM, begun 5 dpi, FIG. 10A", "value": "statistically significant decreases in percentage weight loss"}, {"measurement": "number of mice showing no disease signs", "setting": "[1]; 300 mg/kg/day IM, begun 5 dpi", "value": 1, "unit": "mouse"}, {"measurement": "total number of disease signs", "setting": "[1]; 300 mg/kg/day IM, begun 7 dpi", "value": 23, "unit": "disease signs"}, {"measurement": "number of mice showing no disease signs", "setting": "[1]; 300 mg/kg/day IM, begun 7 dpi", "value": 0, "unit": "mice"}, {"measurement": "clinically significant laboratory abnormalities", "setting": "[2]", "value": "no clinically significant laboratory abnormalities occurred"}, {"measurement": "exposure vs dose", "setting": "[2]", "value": "dose-proportional and linear with increasing dose"}, {"measurement": "plasma PK profile on co-administration of lidocaine", "setting": "[2]; 4 mg/kg", "value": "without altering the plasma PK profile"}, {"measurement": "CPE red. assay EC50", "setting": "Zika virus Uganda MR 766 [3]; Huh-7 cells", "value": "5.7 ± 0.9", "unit": "µg/mL"}, {"measurement": "CPE red. assay EC50", "setting": "Zika virus Uganda MR 766 [3]; RD cells", "value": "4.4 ± 1.3", "unit": "µg/mL"}, {"measurement": "CPE red. assay EC50", "setting": "Zika virus Uganda MR 766 [3]; Vero76 cells", "value": "11.7 ± 4.7", "unit": "µg/mL"}, {"measurement": "CPE red. assay EC50", "setting": "[4]; Huh-7 cells", "value": "4.7 ± 0.6", "unit": "µg/mL"}, {"measurement": "CPE red. assay EC50", "setting": "[4]; RD cells", "value": "4.7 ± 2.2", "unit": "µg/mL"}, {"measurement": "CPE red. assay EC50", "setting": "[4]; Vero76 cells", "value": "3.8 ± 2.5", "unit": "µg/mL"}, {"measurement": "CPE red. assay EC50", "setting": "[5]; Huh-7 cells", "value": "5.5 ± 0.1", "unit": "µg/mL"}, {"measurement": "CPE red. assay EC50", "setting": "[5]; Vero76 cells", "value": "11.5 ± 4.4", "unit": "µg/mL"}, {"measurement": "VYR assay EC90", "setting": "Zika virus Uganda MR 766 [6]; Huh-7 cells", "value": 6.4, "unit": "µg/mL"}, {"measurement": "VYR assay EC90", "setting": "Zika virus Uganda MR 766 [6]; RD cells", "value": "5.4 ± 1.1", "unit": "µg/mL"}, {"measurement": "VYR assay EC90", "setting": "Zika virus Uganda MR 766 [6]; Vero76 cells", "value": 8.7, "unit": "µg/mL"}, {"measurement": "VYR assay EC90", "setting": "[7]; Huh-7 cells", "value": "6.7 ± 1.2", "unit": "µg/mL"}, {"measurement": "VYR assay EC90", "setting": "[7]; RD cells", "value": "10.0 ± 2.2", "unit": "µg/mL"}, {"measurement": "VYR assay EC90", "setting": "[7]; Vero76 cells, virus harvested 5 dpi, 1 log10 CCID50 reduction", "value": "18.2 ± 2.7", "unit": "µg/mL"}, {"measurement": "VYR assay EC90", "setting": "[8]; Huh-7 cells", "value": "4.9 ± 0.9", "unit": "µg/mL"}, {"measurement": "VYR assay EC90", "setting": "[8]; Vero76 cells", "value": "13.8 ± 3.7", "unit": "µg/mL"}]}
